Laboratory results taken from ChEMBL document CHEMBL1142252, “Identification of aminopyrazolopyridine ureas as potent VEGFR/PDGFR multitargeted kinase inhibitors” (Bioorg Med Chem Lett, 2008).
≈ marks a conversion by molar mass, not a printed value.

Legend:
Mus musculus = experiment: Inhibition of estradiol-induced uterine edema in mouse at 10 mg/kg, po; details: read-out: Inhibition
[1] = Half life in mouse at 3 mg/kg, iv; type: ADME, organism-based; design: dose 3 mg/kg, route intravenous; details: in vivo
[2] = Volume of distribution in mouse at 3 mg/kg, iv; type: ADME, organism-based; design: dose 3 mg/kg, route intravenous; details: in vivo
[3] = Clearance in mouse at 3 mg/kg, iv; type: ADME, organism-based; design: dose 3 mg/kg, route intravenous; details: in vivo
[4] = AUC in mouse at 10 mg/kg, po; type: ADME, organism-based; design: dose 10 mg/kg, route oral; details: plasma
[5] = Oral bioavailability in mouse at 10 mg/kg; type: ADME, organism-based; details: in vivo
[6] = Aqueous solubility at pH 7.2; type: physicochemical; details: buffer
[7] = target: Vascular endothelial growth factor receptor 1 (Homo sapiens, UniProt P17948); experiment: Inhibition of FLT1 by HTRF assay
[8] = target: T1, Receptor-type tyrosine-protein kinase FLT3 (Homo sapiens, UniProt P36888); experiment: Inhibition of FLT3 by HTRF assay
T1 sequence (P36888 whole entry): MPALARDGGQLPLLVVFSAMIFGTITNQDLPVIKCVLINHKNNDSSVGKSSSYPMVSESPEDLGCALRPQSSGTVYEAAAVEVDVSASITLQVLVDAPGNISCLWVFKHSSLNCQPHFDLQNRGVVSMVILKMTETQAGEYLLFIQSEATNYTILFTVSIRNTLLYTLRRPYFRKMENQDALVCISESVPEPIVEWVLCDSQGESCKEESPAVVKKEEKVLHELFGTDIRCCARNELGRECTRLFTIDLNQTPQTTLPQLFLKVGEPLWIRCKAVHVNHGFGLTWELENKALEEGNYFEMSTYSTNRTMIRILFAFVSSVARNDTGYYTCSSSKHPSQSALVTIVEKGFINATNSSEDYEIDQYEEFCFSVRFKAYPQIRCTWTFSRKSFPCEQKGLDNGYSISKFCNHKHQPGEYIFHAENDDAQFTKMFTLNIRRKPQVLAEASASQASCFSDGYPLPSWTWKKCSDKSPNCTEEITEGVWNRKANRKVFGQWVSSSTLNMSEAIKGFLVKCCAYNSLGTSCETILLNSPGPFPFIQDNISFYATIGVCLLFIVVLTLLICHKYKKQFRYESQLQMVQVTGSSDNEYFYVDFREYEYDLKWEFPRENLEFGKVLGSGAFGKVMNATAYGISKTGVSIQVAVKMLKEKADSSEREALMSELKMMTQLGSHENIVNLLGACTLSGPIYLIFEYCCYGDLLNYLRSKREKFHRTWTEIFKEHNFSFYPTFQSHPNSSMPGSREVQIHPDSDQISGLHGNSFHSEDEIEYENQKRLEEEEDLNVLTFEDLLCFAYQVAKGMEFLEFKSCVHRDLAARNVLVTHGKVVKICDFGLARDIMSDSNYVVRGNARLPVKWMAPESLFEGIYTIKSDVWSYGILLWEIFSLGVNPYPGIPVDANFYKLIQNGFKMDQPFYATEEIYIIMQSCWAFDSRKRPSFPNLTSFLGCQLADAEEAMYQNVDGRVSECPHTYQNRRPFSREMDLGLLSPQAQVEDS

[9] = target: Mast/stem cell growth factor receptor Kit (Homo sapiens, UniProt P10721); experiment: Inhibition of cKit by HTRF assay
[10] = target: Macrophage colony-stimulating factor 1 receptor (Homo sapiens, UniProt P07333); experiment: Inhibition of CSF1R by HTRF assay
[11] = target: Tyrosine-protein kinase Fyn (Homo sapiens, UniProt P06241); experiment: Inhibition of FYN by HTRF assay
[12] = target: T2, Vascular endothelial growth factor receptor 2 (Homo sapiens, UniProt P35968)
Description: Inhibition of KDR by HTRF assay

[13] = target: T2, Vascular endothelial growth factor receptor 2; remark: listed apart in the source
Description: Inhibition of VEGF-induced human KDR phosphorylation in mouse 3T3 cells

T2 sequence (P35968 whole entry): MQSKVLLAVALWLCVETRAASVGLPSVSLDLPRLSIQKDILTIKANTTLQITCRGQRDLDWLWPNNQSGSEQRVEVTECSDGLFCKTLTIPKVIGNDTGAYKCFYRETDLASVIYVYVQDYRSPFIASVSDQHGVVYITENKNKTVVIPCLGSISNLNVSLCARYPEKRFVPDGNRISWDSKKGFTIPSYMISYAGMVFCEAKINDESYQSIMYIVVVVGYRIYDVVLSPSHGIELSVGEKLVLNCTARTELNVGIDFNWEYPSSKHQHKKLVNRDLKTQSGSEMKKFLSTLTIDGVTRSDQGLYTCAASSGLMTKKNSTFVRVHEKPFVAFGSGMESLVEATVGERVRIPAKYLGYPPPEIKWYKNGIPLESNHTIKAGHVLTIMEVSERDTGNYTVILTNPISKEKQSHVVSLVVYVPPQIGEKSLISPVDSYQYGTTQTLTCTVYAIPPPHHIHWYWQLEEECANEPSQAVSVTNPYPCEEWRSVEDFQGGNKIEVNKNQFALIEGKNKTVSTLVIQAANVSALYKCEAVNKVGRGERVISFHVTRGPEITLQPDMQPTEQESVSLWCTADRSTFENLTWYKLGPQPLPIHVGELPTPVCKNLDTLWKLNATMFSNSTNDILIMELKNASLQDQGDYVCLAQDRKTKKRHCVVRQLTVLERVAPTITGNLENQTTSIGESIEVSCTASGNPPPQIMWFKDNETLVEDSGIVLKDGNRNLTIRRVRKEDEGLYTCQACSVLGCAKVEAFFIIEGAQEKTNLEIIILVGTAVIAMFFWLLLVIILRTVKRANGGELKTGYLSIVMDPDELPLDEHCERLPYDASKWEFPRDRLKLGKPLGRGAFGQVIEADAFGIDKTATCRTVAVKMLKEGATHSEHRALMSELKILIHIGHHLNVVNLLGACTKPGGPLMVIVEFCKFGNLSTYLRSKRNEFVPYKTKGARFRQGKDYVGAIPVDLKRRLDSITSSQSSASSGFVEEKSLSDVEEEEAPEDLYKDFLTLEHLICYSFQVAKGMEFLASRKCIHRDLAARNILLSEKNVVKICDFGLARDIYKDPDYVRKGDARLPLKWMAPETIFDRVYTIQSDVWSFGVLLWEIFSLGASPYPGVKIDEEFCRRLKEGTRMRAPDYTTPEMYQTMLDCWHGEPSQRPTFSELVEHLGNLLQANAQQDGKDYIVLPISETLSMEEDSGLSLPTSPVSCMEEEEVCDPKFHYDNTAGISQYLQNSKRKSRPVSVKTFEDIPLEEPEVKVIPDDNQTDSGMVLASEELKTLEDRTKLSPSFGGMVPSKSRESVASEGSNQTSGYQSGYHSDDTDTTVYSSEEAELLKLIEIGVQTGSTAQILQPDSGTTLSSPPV
Sequence of Vascular endothelial growth factor receptor 1 (P17948 whole entry): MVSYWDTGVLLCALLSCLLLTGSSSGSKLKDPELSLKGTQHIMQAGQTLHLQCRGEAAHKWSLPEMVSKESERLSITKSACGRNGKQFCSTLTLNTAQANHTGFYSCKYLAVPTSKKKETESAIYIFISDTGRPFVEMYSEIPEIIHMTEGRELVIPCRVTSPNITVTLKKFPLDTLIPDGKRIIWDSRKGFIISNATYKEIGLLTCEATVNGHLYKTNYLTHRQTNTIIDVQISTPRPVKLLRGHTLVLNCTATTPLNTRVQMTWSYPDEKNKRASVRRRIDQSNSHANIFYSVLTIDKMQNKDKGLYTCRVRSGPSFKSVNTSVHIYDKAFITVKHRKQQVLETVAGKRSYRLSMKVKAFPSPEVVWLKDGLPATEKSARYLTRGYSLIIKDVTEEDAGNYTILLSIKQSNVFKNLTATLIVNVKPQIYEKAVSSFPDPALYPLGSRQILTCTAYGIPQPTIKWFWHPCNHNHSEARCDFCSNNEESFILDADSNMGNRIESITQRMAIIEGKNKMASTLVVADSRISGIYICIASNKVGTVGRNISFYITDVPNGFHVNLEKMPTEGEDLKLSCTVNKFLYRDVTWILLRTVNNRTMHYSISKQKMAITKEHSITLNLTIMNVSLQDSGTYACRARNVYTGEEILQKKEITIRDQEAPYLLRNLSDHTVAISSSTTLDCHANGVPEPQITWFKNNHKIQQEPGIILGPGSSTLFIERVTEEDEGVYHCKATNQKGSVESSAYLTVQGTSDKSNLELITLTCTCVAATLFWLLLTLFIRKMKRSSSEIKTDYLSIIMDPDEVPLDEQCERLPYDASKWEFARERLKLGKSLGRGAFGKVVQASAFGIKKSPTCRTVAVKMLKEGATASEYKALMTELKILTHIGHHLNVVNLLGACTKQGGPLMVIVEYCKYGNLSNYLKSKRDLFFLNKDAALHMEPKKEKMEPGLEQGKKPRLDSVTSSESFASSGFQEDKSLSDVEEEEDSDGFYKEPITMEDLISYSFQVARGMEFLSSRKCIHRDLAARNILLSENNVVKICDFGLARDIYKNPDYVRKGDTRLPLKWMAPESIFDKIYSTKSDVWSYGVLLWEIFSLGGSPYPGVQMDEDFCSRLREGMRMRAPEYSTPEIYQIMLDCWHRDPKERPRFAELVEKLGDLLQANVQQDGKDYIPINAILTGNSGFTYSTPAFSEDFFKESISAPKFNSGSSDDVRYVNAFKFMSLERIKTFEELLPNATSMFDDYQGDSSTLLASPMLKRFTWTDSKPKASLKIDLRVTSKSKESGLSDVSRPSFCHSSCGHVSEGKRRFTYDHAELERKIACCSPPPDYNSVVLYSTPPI
Sequence of Macrophage colony-stimulating factor 1 receptor (P07333 whole entry): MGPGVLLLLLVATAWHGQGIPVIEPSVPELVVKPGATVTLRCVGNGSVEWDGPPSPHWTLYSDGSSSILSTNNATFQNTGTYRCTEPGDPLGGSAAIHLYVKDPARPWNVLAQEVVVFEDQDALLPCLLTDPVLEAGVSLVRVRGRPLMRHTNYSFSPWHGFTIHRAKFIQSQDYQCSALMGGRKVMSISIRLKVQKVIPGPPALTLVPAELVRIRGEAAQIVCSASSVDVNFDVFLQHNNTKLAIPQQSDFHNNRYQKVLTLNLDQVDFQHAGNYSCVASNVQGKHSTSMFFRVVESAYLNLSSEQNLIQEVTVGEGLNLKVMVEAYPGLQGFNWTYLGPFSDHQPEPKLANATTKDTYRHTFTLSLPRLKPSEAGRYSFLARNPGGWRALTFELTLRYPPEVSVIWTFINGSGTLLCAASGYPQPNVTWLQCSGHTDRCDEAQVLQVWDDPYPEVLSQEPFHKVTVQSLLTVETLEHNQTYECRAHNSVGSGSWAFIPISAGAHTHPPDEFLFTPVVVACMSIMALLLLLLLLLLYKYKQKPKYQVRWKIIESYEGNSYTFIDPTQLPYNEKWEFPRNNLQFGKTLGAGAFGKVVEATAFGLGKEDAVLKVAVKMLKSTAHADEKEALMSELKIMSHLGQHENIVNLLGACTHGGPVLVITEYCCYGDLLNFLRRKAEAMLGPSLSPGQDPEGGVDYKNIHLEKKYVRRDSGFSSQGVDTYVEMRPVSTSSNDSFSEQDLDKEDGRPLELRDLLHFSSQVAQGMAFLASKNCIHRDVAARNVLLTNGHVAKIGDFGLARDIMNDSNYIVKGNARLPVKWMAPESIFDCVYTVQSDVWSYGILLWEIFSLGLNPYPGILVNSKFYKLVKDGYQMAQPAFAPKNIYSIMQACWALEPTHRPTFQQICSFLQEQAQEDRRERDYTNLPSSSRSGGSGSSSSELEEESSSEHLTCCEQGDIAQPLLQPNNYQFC
Sequence of Mast/stem cell growth factor receptor Kit (P10721 whole entry): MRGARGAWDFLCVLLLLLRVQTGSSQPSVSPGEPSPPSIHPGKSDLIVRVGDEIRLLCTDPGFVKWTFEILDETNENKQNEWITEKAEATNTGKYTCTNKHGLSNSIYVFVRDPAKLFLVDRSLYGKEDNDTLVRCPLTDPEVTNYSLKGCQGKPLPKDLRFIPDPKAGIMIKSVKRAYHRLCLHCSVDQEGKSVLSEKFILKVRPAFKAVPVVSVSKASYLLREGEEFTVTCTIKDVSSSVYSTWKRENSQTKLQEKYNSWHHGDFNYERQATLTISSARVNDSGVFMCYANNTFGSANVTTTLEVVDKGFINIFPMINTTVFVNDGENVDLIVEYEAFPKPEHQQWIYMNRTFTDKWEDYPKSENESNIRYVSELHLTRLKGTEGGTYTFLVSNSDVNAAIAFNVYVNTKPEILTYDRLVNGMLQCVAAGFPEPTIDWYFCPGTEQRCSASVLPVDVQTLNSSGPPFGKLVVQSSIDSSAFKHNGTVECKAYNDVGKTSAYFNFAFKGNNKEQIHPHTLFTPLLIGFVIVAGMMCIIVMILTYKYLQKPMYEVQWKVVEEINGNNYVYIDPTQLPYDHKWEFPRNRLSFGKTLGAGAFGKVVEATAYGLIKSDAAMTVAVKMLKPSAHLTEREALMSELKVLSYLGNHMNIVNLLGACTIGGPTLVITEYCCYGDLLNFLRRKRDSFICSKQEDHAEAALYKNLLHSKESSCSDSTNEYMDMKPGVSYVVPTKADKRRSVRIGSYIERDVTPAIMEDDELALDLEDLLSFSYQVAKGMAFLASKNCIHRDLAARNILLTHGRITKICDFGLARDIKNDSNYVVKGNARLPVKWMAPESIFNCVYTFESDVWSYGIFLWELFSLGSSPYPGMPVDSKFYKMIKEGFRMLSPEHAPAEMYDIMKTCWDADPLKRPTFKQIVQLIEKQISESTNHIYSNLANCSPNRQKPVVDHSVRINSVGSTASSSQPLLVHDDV

Cc1ccc(F)c(NC(=O)Nc2ccc(-c3ccnc4[nH]nc(N)c34)cc2)c1
inhibition in vivo at 10 mg/kg (Mus musculus): 66% | half-life [1]: 60 min | Vd [2]: 1.5 L/kg | clearance [3]: 17.3 mL/min/kg | AUC [4]: 15.7 µM·h | bioavailability [5]: 62%

Cc1cc(C)cc(NC(=O)Nc2ccc(-c3ccnc4[nH]nc(N)c34)cc2)c1
inhibition in vivo at 10 mg/kg (Mus musculus): 77%

Nc1n[nH]c2nccc(-c3ccc(NC(=O)Nc4cccc(Cl)c4)cc3)c12
inhibition in vivo at 10 mg/kg (Mus musculus): 23% | solubility [6]: 1.6 µM (≈ 0.606 µg/mL)

Nc1n[nH]c2nccc(-c3ccc(NC(=O)Nc4cccc(C(F)(F)F)c4)cc3)c12
IC50 [7]: 5 nM | IC50 [8]: 2 nM | IC50 [9]: 7 nM | IC50 [10]: 3 nM | IC50 [11]: 11800 nM

Cc1ccc(NC(=O)Nc2ccc(-c3ccnc4[nH]nc(N)c34)cc2)cc1
inhibition in vivo at 10 mg/kg (Mus musculus): < 5%

Nc1n[nH]c2nccc(-c3ccc(NC(=O)Nc4ccc(F)c(Cl)c4)cc3)c12
inhibition in vivo at 10 mg/kg (Mus musculus): 55%

Nc1n[nH]c2cncc(-c3ccc(NC(=O)Nc4cc(C(F)(F)F)ccc4F)cc3)c12
inhibition in vivo at 10 mg/kg (Mus musculus): 35%

Cn1nc(N)c2c(-c3ccc(NC(=O)Nc4ccc(F)c(C(F)(F)F)c4)cc3)cncc21
inhibition in vivo at 10 mg/kg (Mus musculus): 59%

Cc1ccccc1NC(=O)Nc1ccc(-c2ccnc3[nH]nc(N)c23)cc1
inhibition in vivo at 10 mg/kg (Mus musculus): < 5% | IC50 [12]: 35 nM | IC50 [13]: 2.2 nM

Cc1ccc(F)c(NC(=O)Nc2ccc(-c3cncc4[nH]nc(N)c34)cc2)c1
inhibition in vivo at 10 mg/kg (Mus musculus): 98% | solubility [6]: 5.8 µM (≈ 2.18 µg/mL)

Cc1cc(C)cc(NC(=O)Nc2ccc(-c3nccc4[nH]nc(N)c34)cc2)c1
inhibition in vivo at 10 mg/kg (Mus musculus): < 5% | half-life [1]: 27 min | Vd [2]: 1.71 L/kg | clearance [3]: 43.7 mL/min/kg | AUC [4]: 0.89 µM·h | bioavailability [5]: 9%

Cc1cccc(NC(=O)Nc2ccc(-c3cncc4[nH]nc(N)c34)cc2)c1
inhibition in vivo at 10 mg/kg (Mus musculus): 50%

Cc1cc(NC(=O)Nc2ccc(-c3ccnc4[nH]nc(N)c34)cc2)ccc1F
inhibition in vivo at 10 mg/kg (Mus musculus): 108%

Cc1ccc(F)c(NC(=O)Nc2ccc(-c3cncc4c3c(N)nn4C)cc2)c1
inhibition in vivo at 10 mg/kg (Mus musculus): 72% | half-life [1]: 90 min | Vd [2]: 1.48 L/kg | clearance [3]: 11.5 mL/min/kg | AUC [4]: 30.2 µM·h | bioavailability [5]: 81% | IC50 [12]: 7.7 nM | IC50 [13]: 3 nM

Nc1n[nH]c2nccc(-c3ccc(NC(=O)Nc4ccccc4)cc3)c12
inhibition in vivo at 10 mg/kg (Mus musculus): 39%

Cc1ccc(F)c(NC(=O)Nc2ccc(-c3nccc4[nH]nc(N)c34)cc2)c1
inhibition in vivo at 10 mg/kg (Mus musculus): < 5% | solubility [6]: 9.5 µM (≈ 3.58 µg/mL)

Nc1n[nH]c2cncc(-c3ccc(NC(=O)Nc4cccc(Cl)c4)cc3)c12
inhibition in vivo at 10 mg/kg (Mus musculus): < 5%

Cn1nc(N)c2c(-c3ccc(NC(=O)Nc4cccc(Cl)c4)cc3)cncc21
inhibition in vivo at 10 mg/kg (Mus musculus): 52%

Cc1cccc(NC(=O)Nc2ccc(-c3cncc4c3c(N)nn4C)cc2)c1
inhibition in vivo at 10 mg/kg (Mus musculus): 79% | half-life [1]: 36 min | Vd [2]: 0.66 L/kg | clearance [3]: 12.7 mL/min/kg | AUC [4]: 25 µM·h | bioavailability [5]: 71%

Nc1n[nH]c2ccnc(-c3ccc(NC(=O)Nc4cccc(C(F)(F)F)c4)cc3)c12
inhibition in vivo at 10 mg/kg (Mus musculus): < 5%

Cc1cc(NC(=O)Nc2ccc(-c3cncc4[nH]nc(N)c34)cc2)ccc1F
inhibition in vivo at 10 mg/kg (Mus musculus): 19%

Cc1cc(NC(=O)Nc2ccc(-c3nccc4[nH]nc(N)c34)cc2)ccc1F
inhibition in vivo at 10 mg/kg (Mus musculus): < 5%

Cc1ccc(F)c(NC(=O)Nc2ccc(-c3cccc4[nH]nc(N)c34)cc2)c1 [LINIFANIB]
solubility [6]: 0.07 µM (≈ 0.0263 µg/mL)
